Data as given in ChEMBL document CHEMBL4665846, “Piperlonguminine and Piperine Analogues as TrxR Inhibitors that Promote ROS and Autophagy and Regulate p38 and Akt/mTOR Signaling” (J Nat Prod, 2020).
Calls of active or inactive are those of the source. The calls are words filed in the database; no cut-off is given here.

What was measured:
[1] = system: HGC-27; assay: Cytotoxicity against human HGC-27 cells assessed as reduction in cell viability after 72 hrs by MTT assay; format: functional, cell-based; details: HGC-27, 72 h
[2] = system: Bel7402/5-FU; assay: Cytotoxicity against human BEL-7402/5-FU cells assessed as reduction in cell viability after 72 hrs by MTT assay; format: functional, cell-based
[3] = system: Bel-7402; assay: Cytotoxicity against human Bel-7402 cells assessed as reduction in cell viability after 72 hrs by MTT assay; format: functional, cell-based; details: for IC50: Bel-7402, 72 h
[4] = system: HCT-116; assay: Cytotoxicity against human HCT-116 cells assessed as reduction in cell viability after 72 hrs by MTT assay; format: functional, cell-based; details: HCT-116, 72 h
[5] = system: HepG2; assay: Cytotoxicity against human HepG2 cells assessed as reduction in cell viability after 72 hrs by MTT assay; format: functional, cell-based; details: HepG2, 72 h
[6] = system: Bel7402/5-FU; assay: Induction of ROS generation in human BEL-7402/5-FU cells at 10 uM using H2O2 as substrate preincubated for 24 hrs followed by substrate addition and measured after 6 hrs by ROS-Glo assay relative to control; format: functional
[7] = system: Bel7402/5-FU; assay: Induction of mitochondrial membrane potential loss in human BEL-7402/5-FU cells at 10 uM after 24 hrs by JC-1 staining based fluorescence microscopic method; format: functional, cell-based
[8] = target: T1, Serine/threonine-protein kinase AKT (Homo sapiens) (UniProt P31751+Q9Y243+P31749); assay: Inhibition of AKT phosphorylation in human BEL-7402/5-FU cells incubated for 72 hrs by Western blot analysis; format: cell-based; details: dose microM 0.32-2, time 72.0 hrs
T1 sequence (P31749 whole entry, looked up): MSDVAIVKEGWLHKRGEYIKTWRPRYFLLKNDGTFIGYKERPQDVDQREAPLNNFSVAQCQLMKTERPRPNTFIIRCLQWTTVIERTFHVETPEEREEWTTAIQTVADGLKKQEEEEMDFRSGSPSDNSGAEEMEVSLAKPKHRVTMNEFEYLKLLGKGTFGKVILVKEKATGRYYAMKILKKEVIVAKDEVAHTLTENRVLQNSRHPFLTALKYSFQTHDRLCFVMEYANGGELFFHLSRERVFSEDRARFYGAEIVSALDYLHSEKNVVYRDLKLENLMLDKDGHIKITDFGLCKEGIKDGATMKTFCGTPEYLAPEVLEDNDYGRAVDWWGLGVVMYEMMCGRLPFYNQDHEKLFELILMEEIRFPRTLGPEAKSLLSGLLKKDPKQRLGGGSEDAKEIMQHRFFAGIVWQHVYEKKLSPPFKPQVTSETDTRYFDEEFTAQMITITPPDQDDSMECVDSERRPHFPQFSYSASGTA
T1 sequence (P31751 whole entry, looked up): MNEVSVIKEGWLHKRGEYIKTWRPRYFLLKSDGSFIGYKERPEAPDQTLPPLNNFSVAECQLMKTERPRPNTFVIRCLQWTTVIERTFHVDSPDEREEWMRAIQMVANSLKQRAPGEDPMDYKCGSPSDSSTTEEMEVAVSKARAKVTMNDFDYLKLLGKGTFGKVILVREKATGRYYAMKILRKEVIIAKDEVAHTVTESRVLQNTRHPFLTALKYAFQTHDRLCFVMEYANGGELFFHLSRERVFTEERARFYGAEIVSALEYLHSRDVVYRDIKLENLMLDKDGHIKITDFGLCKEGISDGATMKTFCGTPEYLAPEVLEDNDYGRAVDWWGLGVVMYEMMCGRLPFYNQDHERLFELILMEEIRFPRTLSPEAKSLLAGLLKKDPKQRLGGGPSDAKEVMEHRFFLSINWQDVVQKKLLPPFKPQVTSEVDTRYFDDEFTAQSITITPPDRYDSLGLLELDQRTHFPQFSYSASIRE
T1 sequence (Q9Y243 whole entry, looked up): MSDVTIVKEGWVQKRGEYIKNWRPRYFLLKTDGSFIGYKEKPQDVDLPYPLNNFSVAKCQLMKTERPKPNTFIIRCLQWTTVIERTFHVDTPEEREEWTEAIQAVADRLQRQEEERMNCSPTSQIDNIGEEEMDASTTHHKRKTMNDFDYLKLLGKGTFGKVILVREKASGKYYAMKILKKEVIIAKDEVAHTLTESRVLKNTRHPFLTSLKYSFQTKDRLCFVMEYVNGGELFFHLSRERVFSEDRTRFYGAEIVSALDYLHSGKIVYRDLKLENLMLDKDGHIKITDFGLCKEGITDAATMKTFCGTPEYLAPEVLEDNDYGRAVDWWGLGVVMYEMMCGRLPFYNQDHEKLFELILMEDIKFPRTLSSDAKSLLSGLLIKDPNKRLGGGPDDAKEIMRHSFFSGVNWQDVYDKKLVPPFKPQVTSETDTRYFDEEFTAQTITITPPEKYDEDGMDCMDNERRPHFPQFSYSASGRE

[9] = system: Bel7402/5-FU; assay: Induction of autophagy in human BEL-7402/5-FU cells assessed as up regulation of LC3-2 protein expression after 72 hrs by Western blot analysis; format: functional, cell-based; details: dose microM 0.32-2, time 72.0 hrs
[10] = target: T2, Thioredoxin reductase 1, cytoplasmic (Homo sapiens, UniProt Q16881); assay: Inhibition of TrxR in human BEL-7402/5-FU cells by colorimetric assay; format: cell-based
T2 sequence (Q16881 whole entry): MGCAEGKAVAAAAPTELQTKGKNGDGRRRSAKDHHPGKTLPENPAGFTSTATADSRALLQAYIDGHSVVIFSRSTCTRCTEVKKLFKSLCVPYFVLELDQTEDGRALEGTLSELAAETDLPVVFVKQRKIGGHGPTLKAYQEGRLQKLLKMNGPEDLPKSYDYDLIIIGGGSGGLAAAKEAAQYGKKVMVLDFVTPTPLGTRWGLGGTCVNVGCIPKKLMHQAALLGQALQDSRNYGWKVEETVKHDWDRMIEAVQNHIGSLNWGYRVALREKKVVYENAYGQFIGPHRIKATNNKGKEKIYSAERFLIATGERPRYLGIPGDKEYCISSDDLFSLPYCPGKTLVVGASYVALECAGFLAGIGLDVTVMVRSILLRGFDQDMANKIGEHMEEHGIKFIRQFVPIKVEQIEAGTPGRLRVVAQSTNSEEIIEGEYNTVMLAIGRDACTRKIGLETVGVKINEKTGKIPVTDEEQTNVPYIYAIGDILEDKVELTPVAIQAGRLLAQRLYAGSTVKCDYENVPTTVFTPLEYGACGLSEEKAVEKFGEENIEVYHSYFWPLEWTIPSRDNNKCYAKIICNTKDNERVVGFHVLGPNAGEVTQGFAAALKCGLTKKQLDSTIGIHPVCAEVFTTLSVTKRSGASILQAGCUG

[11] = Selectivity ratio of IC50 for cytotoxicity against human L02 cells to IC50 for cytotoxicity against human BEL-7402/5-FU cells
[12] = target: T3, MAP kinase p38 (Homo sapiens) (UniProt O15264+Q15759+Q16539+P53778); assay: Activation of p38 phosphorylation in human BEL-7402/5-FU cells incubated for 72 hrs by Western blot analysis; format: cell-based; details: filed as activator, dose microM 0.32-2, time 72.0 hrs
[13] = Selectivity ratio of IC50 for cytotoxicity against human L02 cells to IC50 for cytotoxicity against human Bel-7402 cells; format: toxicity, cell-based; details: L02 cells and Bel-7402 cells, read-out: Ratio IC50
[14] = system: Bel7402/5-FU; assay: Potency index, ratio of piperlongumine IC50 to test compound IC50 for cytotoxicity against human BEL-7402/5-FU cells; format: functional
[15] = target: T4, Thioredoxin reductase 1, cytoplasmic (Homo sapiens) (UniProt Q16881); assay: Potency index, ratio of piperlongumine IC50 to test compound IC50 for inhibition of TrXr in human BEL-7402/5-FU cells; format: cell-based
T4 sequence (whole entry): T2 sequence (Q16881 whole entry)

[16] = system: Bel7402/5-FU; assay: Induction of mitochondrial membrane potential loss in human BEL-7402/5-FU cells at 1 uM after 24 hrs by JC-1 staining based fluorescence microscopic method relative to piperlongumine; format: functional
[17] = system: HGC-27; assay: Potency index, ratio of piperlongumine IC50 to test compound IC50 for cytotoxicity against human HGC-27 cells; format: functional
[18] = system: Bel7402/5-FU; assay: Induction of autophagy in human BEL-7402/5-FU cells assessed as down regulation of P62 protein expression after 72 hrs by Western blot analysis; format: functional, cell-based; details: dose microM 0.32-2, time 72.0 hrs
[19] = system: Bel7402/5-FU; assay: Induction of autophagy in human BEL-7402/5-FU cells assessed as up regulation of beclin-1 protein expression after 72 hrs by Western blot analysis; format: functional, cell-based; details: dose microM 0.32-2, time 72.0 hrs
[20] = system: Bel7402/5-FU; assay: Induction of autophagy in human BEL-7402/5-FU cells assessed as down regulation of LC3-1 protein expression after 72 hrs by Western blot analysis; format: functional, cell-based; details: dose microM 0.32-2, time 72.0 hrs
[21] = system: Bel7402/5-FU; assay: Induction of autophagy in human BEL-7402/5-FU cells expressing mRFP-eGFP-LC3 assessed as autophagosomes at 0.8 to 2 uM after 24 hrs by confocal laser scanning microscopic method; format: functional, cell-based; details: dose microM 0.8-2, time 24.0 hrs
[22] = target: Serine/threonine-protein kinase mTOR (Homo sapiens) (UniProt P42345); assay: Inhibition of mTOR phosphorylation in human BEL-7402/5-FU cells incubated for 72 hrs by Western blot analysis; format: cell-based; details: dose microM 0.32-2, time 72.0 hrs
[23] = system: Bel7402/5-FU; assay: Induction of autophagy in human BEL-7402/5-FU cells expressing mRFP-eGFP-LC3 assessed as auto lysosomes at 0.8 to 2 uM after 24 hrs by confocal laser scanning microscopic method; format: functional, cell-based; details: dose microM 0.8-2, time 24.0 hrs
[24] = target: Serine/threonine-protein kinase mTOR (Homo sapiens) (UniProt P42345); assay: Inhibition of mTOR phosphorylation in human BEL-7402/5-FU cells at 2 uM incubated for 72 hrs by Western blot analysis; format: cell-based
[25] = target: T3, MAP kinase p38 (Homo sapiens); assay: Activation of p38 phosphorylation in human BEL-7402/5-FU cells at 2 uM incubated for 72 hrs by Western blot analysis; format: cell-based; details: filed as activator
[26] = system: Bel7402/5-FU; assay: Induction of autophagy in human BEL-7402/5-FU cells expressing mRFP-eGFP-LC3 assessed as auto lysosomes at 2 uM after 24 hrs by confocal laser scanning microscopic method; format: functional, cell-based
[27] = target: T1, Serine/threonine-protein kinase AKT (Homo sapiens); assay: Inhibition of AKT phosphorylation in human BEL-7402/5-FU cells at 2 uM incubated for 72 hrs by Western blot analysis; format: cell-based
[28] = system: Bel7402/5-FU; assay: Induction of autophagy in human BEL-7402/5-FU cells expressing mRFP-eGFP-LC3 assessed as autophagosomes at 2 uM after 24 hrs by confocal laser scanning microscopic method; format: functional, cell-based

Compound	IC50 [1]	IC50 [2]	IC50 [3]	IC50 [4]	IC50 [5]	also measured
O=C1C=CCC/C1=C\C=C\c1ccccc1	4.5 µM	4.2 µM	4.2 µM	5.4 µM	7.1 µM	
COc1cc(/C=C/C=C2\CCC=CC2=O)ccc1O	1.2 µM	0.8 µM	0.8 µM	0.9 µM	0.9 µM	Activity [6]: 50%; Activity [7]: Active; inhibition [8]: Dose-dependent effect; Activity [9]: Dose-dependent effect; IC50 [10]: 0.2 µM; Ratio IC50 [11]: 6; Activity [12]: Dose-dependent effect; selectivity ratio [13]: 6; Ratio IC50 [14]: 10; Ratio IC50 [15]: 9; fold change (FC) [16]: 10; Ratio IC50 [17]: 7; Activity [2]: Dose-dependent effect; Activity [3]: Dose-dependent effect; Activity [18]: Dose-dependent effect; Activity [19]: Dose-dependent effect; Activity [20]: Dose-dependent effect; Activity [21]: Active; inhibition [22]: Dose-dependent effect; Activity [23]: Active
O=C1C=CCC/C1=C\C=C\c1ccc([N+](=O)[O-])cc1	5.2 µM	4.5 µM	4.2 µM	5 µM	4.9 µM	
O=C1C=CCC/C1=C\C=C\c1ccccc1[N+](=O)[O-]	4.4 µM	5.2 µM	4.6 µM	6.2 µM	6.8 µM	
COc1cc(/C=C/C(=O)N2CCC=CC2=O)cc(OC)c1OC [PIPLARTINE]	8.1 µM			6.9 µM		inhibition [24]: Active; Activity [25]: Active; Activity [26]: Active; inhibition [27]: Active; Activity [28]: Active
COc1ccc(/C=C/C=C2\CCC=CC2=O)cc1	3.2 µM	1.7 µM	1.4 µM	2.1 µM	2.4 µM	Activity [7]: Active; IC50 [10]: 0.4 µM
CC(=O)Oc1ccc(/C=C/C=C2\CCC=CC2=O)cc1	4.9 µM	4.1 µM	3.8 µM	4.6 µM	4.5 µM	
O=C(/C=C/C=C/c1ccc2c(c1)OCO2)N1CCCCC1 [PIPERINE]			> 10 µM		> 10 µM	
O=C1C=CCC/C1=C\C(Br)=C\c1ccccc1	> 10 µM	> 10 µM	> 10 µM	> 10 µM	> 10 µM	
CC(=C\c1ccccc1)/C=C1\CCC=CC1=O	5.2 µM	4.2 µM	3.9 µM	4.8 µM	4.6 µM	
O=C1C=CCC/C1=C\C=C\c1ccc(F)cc1	2.3 µM	1.9 µM	1.8 µM	2.2 µM	2.9 µM	Activity [7]: Active; IC50 [10]: 0.6 µM
O=C1C=CCC/C1=C\C=C\c1ccc(Cl)cc1	4.8 µM	3.2 µM	3.2 µM	3.5 µM	3.7 µM	
Cc1ccc(/C=C/C=C2\CCC=CC2=O)cc1	8.1 µM	5.8 µM	6.3 µM	7.2 µM	8.6 µM	
CN(C)c1ccc(/C=C/C=C2\CCC=CC2=O)cc1	1.5 µM	1 µM	0.9 µM	1.2 µM	1.1 µM	Activity [7]: Active; IC50 [10]: 0.2 µM; Ratio IC50 [15]: 9
COc1ccccc1/C=C/C=C1\CCC=CC1=O	3.1 µM	2.5 µM	2.6 µM	2.8 µM	5.8 µM	
O=C1C=CCC/C1=C\C=C\c1ccc(Br)cc1	4.5 µM	4.3 µM	3.6 µM	5.2 µM	6.1 µM	
